In general, IC50 refers to the point on the concentration scale where inhibition reaches its midpoint.

The record followed here is ChEMBL document CHEMBL5729087, “Pyranopyrazole and pyrazolopyridine immunomodulators for treatment of autoimmune diseases” (2022).

The target in one assay is T1, Coagulation factor XII (Homo sapiens, UniProt P00748).
T1 sequence (P00748 whole entry): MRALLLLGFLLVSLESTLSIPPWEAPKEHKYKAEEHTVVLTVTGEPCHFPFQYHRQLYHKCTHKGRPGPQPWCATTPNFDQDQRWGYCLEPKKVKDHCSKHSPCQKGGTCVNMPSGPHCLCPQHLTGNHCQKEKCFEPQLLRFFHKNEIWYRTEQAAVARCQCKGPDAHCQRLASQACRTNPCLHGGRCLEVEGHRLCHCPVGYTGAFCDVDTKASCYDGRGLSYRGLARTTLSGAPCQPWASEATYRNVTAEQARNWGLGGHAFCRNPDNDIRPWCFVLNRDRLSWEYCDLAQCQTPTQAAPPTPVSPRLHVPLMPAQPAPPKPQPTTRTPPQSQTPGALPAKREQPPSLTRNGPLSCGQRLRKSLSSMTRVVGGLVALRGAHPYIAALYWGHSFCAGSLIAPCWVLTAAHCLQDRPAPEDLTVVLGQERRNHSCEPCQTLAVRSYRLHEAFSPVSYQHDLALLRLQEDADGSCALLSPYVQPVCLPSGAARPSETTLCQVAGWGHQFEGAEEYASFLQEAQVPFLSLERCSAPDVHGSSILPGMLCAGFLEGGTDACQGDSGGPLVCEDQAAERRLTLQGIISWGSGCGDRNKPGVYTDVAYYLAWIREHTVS
Description: Factor XIIa (FXIIa) Inhibitory Activity: In a 96-well clear bottom plate, 80 μl of assay buffer was added to each well. Assay buffer consists of 0.5× Hank's Balanced Salt Solution (Invitrogen), buffered with 25 mM HEPES pH 7.4 (Invitrogen) and 0.5× Tris-buffered saline with Tween-20 0.05% (Santa Cruz Biotechnology). Test compounds were first dissolved in DMSO (Sigma) and then 4 μl were added to test wells containing assay buffer. Serial dilutions using an automated multi-channel pipette were used to generate a concentration range of approximately 1-100 μM. Human FXIIa (Enzyme Research Labs) was diluted in assay buffer to a final concentration of 12.5 nM. 80 μl of this enzyme solution was added to the assay wells. The enzyme/compound mixtures were incubated for 10 minutes at room temperature. Chromogenic substrate (Pefachrome XIIa; Enzyme Research Labs) was added to assay wells at a final concentration of 400 μM. The assay plate was spun for 1 minute at 1500 g and then read at 37° C. in a SpectraMax M2 plate reader (λ=405 nm). Activity was quantified as the rate of change in absorbance, which corresponds to the rate of substrate cleavage. IC50 values were determined as the concentration of inhibitor that produced 50% of the rate of change of control wells without any inhibitor. For compounds with activity <1 μM, the assay was repeated with a lower concentration range, typically from 10-1000 nM.

A further assay addresses Prothrombin (Homo sapiens, UniProt P00734). Nature of the assay: Counterscreens for Selectivity: Thrombin. In a 96-well white opaque plate, 80 μl of assay buffer was added to each well. Test compounds were added, and serially diluted as above, to generate a concentration range of approximately 1-100 μM. Human alpha-thrombin (Enzyme Research Labs) was diluted in assay buffer to a final concentration of 12.5 nM. 80 μl of this enzyme solution was added to the assay wells. The enzyme/compound mixtures were incubated for 10 minutes at room temperature. Fluorogenic substrate (Boc-Val-Pro-Arg-7-amido-4-methylcoumarin; Sigma) was added to assay wells at a final concentration of 20 μM. The assay plate was spun for 1 minute at 1500 g and then read at 37° C. in a SpectraMax M2 plate reader (λex=380 nm and λem=460 nm). Activity was quantified as the rate of change in fluorescence, which corresponds to the rate of substrate cleavage. IC50 values were determined as the concentration of inhibitor that produced 50% of the rate of change of control wells without any inhibitor. For compounds with activity <1 μM, the assay was repeated with a lower concentration range, typically from 10-1000 nM. (The purpose of a counterscreen is to sort out artefacts and off-target activity.)

On to `CN(C)S(=O)(=O)N1CCc2c(nn(C(=O)C3CCNc4ccccc43)c2N)C1` (stereo not given), for which the IC50 is 0.25 µM on Coagulation factor XII and above 75 µM at Prothrombin.

With `Cc1cc2c(C(=O)n3nc4c(c3N)CCNC4)cccc2[nH]1`, the results for the IC50 at Coagulation factor XII and on Prothrombin were 0.15 µM and above 150 µM, respectively.

Regarding `CC(C)N1CCc2c(N)nn(C(=O)C3CCNc4ccc(F)cc43)c2C1` (stereo not given), the IC50 at Coagulation factor XII is 60 µM.
